Experimental data as given in US10781171B2, “Substituted pyrrolidines as G-protein coupled receptor 43 agonists” (Epics Therapeutics, priority 2009, dated 2020).

Tested on: ob/ob mice
Assay: Oral glucose tolerance test (OGTT) in ob/ob mice
Format: in vivo, mouse
Conditions: blood glucose AUC -15 to 120 min in OGTT, 50 mg/kg bi-daily for 28 days
Description: Ob/ob or obese mice are leptin-deficient mice that eat excessively and become profoundly obese, hyperinsulinemic and hyperglycemic. It is an animal model of type II diabetes. Such model can be used for oral glucose tolerance tests (OGTTs). A total of sixteen (16) male ob/ob mice (6 weeks of age) were obtained from Harlan. Upon arrival to the animal unit, mice were housed 4 per cage in rodent cages mounted with feeders containing regular chow. The mice were put in a 12/12h light-dark cycle (light from 0600-1800 h) with controlled temperature conditions (22-24° C.). Fed blood glucose and body-weight was measured on day −2 in the morning between 08:00 AM and 09:00 AM. Animals were randomized into 2 groups according to fed glucose levels (on day −2). […]
Day 1 is the first day of dosing. […] At −15 min, blood glucose was measured (using a glucose analyzer) and animals were dosed with compounds of the invention or vehicle. At time point 0, blood glucose was measured again and glucose was administered by oral gavage (1 g/kg glucose). The blood glucose was then measured at time points 15, 30, 45, 60 and 120 minutes. […] The percentages of AUC inhibition induced by compounds of the invention were calculated as follows: % of AUC inhibition: [1-(AUC compound/AUC vehicule)]*100.

## COc1ccccc1-c1ccc(C(=O)N2[C@@H](c3ccccc3Cl)CC[C@H]2C(=O)O)cc1 [Compound 1, (2S,5R)-5-(2-chlorophenyl)-1-(2′-methoxy-[1,1′-biphenyl]-4-carbonyl)pyrrolidine-2-carboxylic acid]
  % of AUC inhibition: 40%
